This assay concerns CEM cells HIV-1 protection, formazan growth assay. Briefly: NCI AIDS Antiviral Assay. The following applies: for pIC50: measured here: growth of uninfected CEM cells. Summed up:
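Protection of CEM cells against HIV-1 was scored from cell growth (soluble formazan) across five concentrations, with parallel uninfected cells. Lack of protection may reflect toxicity.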

pEC50, pIC50: −log10 of the molar value. Activity calls are given as the source filed them.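 Rule for the calls: active = compounds giving half or more protection of infected cells from virus-caused growth loss, again on retest; inactive = the rest.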 Where a SMILES comes first, the peptide text is derived from it. Bridges are numbered along the chain shown (N, C = ends). Roman numbers before positions name the chains, in order.

Broadly, the pEC50 is the EC50 on a negative log10 scale, so that one unit is a factor of ten. The pIC50 is the negative decadic logarithm of the IC50, by convention in mol/L. Low readings indicate a large IC50, high ones a small IC50. Turning to `Cc1ccc(S(=O)(=O)Oc2ccc3oc4c(CO)ccc(NCCN(C)C)c4c(=O)c3c2)cc1`, the pEC50 is under 4.41 and the pIC50 was 5.16.
Regarding `c1cc2cc3c(cc2o1)OC[C@H]1c2cc4c(cc2O[C@@H]31)OCO4`, the pEC50 is under 4.36 and the pIC50 is 4.98.
The corresponding values for `CC1=NN(C(=O)CC(=O)Nc2ccc(C)cc2)C(=O)C1N=Nc1ccc(S(N)(=O)=O)cc1` (centres undefined) are under 6.20 and under 6.20.
In the same order, the values of `COc1ccc2c(c1OC)Oc1c(OC)ccc3c1C(C2)N(C)C[C@@H]3O` (some centres undefined) are under 3.60 and under 3.60.
The corresponding values for `CCN(CC)S(=O)(=O)c1ccc([O-])c(C(=O)[O-])c1.[Cu+2].[OH3+]` are under 3.70 and 4.55.
For `Nc1c2nc(Nc3ccccc3)sc2nc(=S)n1-c1ccc([N+](=O)[O-])cc1`, the pEC50 was under 4.30 and the pIC50 was under 4.30.
As for `O=S(=O)(c1ccccc1)C(c1ccc2ccccc2n1)S(=O)(=O)c1ccccc1`, the pEC50 was under 3.70 and the negative logarithm of the IC50 (pIC50) is 4.38.
For the compound `CCC(C)C(NC(=O)CNC(=O)C(Cc1c[nH]c2ccccc12)NC(=O)C(NC(=O)C(NC(=O)C(N)CC(C)C)C(C)O)C(C)C)C(=O)NC(CCCCN)C(=O)NC(CCC(N)=O)C(=O)NC(CC(C)C)C(=O)NC(CCC(N)=O)C(=O)NC(C)C(=O)NC(CCCN=C(N)N)C(N)=O` (centres undefined) (H-LTVWGIKQLQAR-NH2; configuration not given here), the pEC50 is under 4.30 and the pIC50 is under 4.30.
As to `CCOC(=O)c1ccc(CSc2ccccc2C(=O)OCC)cc1`, the pEC50 was under 5.52 and the negative logarithm of the IC50 (pIC50) is under 5.52.
On to `CC(C)(C)[Si](OC1CC(n2cnc3c(N)ncnc32)OC1CO)(c1ccccc1)c1ccccc1` (centres undefined), for which the pEC50 was under 4.00 and the pIC50 was under 4.00.
With `CCOP(=O)(OCC)C(C)(C)N(C)/C(F)=N/C(F)(F)F`, the pEC50 was under 3.70 and the pIC50 is under 3.70.
In the case of `C=CC/C=C/C/C=C/CCCCCCCc1cccc(O)c1C(=O)O`, the pEC50 is under 3.98 and the pIC50 is 4.25.
Take `CC1CCN(C2=CC(=O)C(=O)c3cccnc32)CC1`: the result was inactive.
Regarding `O=C(O)c1ccc(SSc2ccc(C(=O)O)cc2)cc1`, the negative-log EC50 (pEC50) was 3.91 and the pIC50 was under 3.70.
The corresponding values for `NC(=O)Cn1c(=O)oc2cc(C(=O)CN3CCOCC3)ccc21` are under 3.70 and under 3.70.
In the case of `CCOC(=O)C(C)c1nc2cc(N3CCOCC3)c(F)cc2[nH]c1=O` (centres undefined), the pEC50 was under 3.70 and the pIC50 is under 3.70.
In the case of `O=C(O)c1ccccc1SSC(=S)N1CCOCC1`, the pEC50 is under 7.70 and the pIC50 was 9.12.
Turning to `O=[N+]([O-])c1cc(I)cc(/C=N/NS(=O)(=O)c2ccc(Cl)cc2)c1O`, the pEC50 was under 3.43 and the pIC50 is 4.18.
In the same order, the values of `Cc1ccc(N=Nc2c(C)nn(C(=O)CC(=O)Nc3ccccc3)c2C)cc1C` are under 3.70 and under 3.70.
As for `CCOP1(=O)OCC(C(C)(C)C)CO1` (centres undefined), the pEC50 was under 3.70 and the pIC50 was under 3.70.
As to `c1ccc(C2N3CCCCC3[C@@H]3c4[nH]c5ccccc5c4CCN23)nc1` (some centres undefined), the pEC50 is under 3.98 and the pIC50 was under 3.98.
Regarding `Cc1cc(/C=C\c2ccnc3ccccc23)ccc1N(C)C`, the outcome was inactive.
The same measure, in the same setting: next, `CC(C)CC(NC(=O)C(N)CSSCC(N)C(=O)NC(CC(C)C)C(=O)O)C(=O)O` (stereo not drawn) (I: H-Cys-Leu-OH / II: H-Cys-Leu-OH; disulfide I:1-II:1; configuration not given here): “inactive”.
On to `CCOC(=O)C1(Br)C(c2ccccc2)NC(=O)N(C2OC(COC(=O)c3ccccc3)C(OC(=O)c3ccccc3)C2OC(=O)c2ccccc2)C1(C)Br` (centres undefined), for which the pEC50 was under 4.80 and the pIC50 is under 4.80.
For `Cc1c(O)cc2c(c1O)C(=O)CC(c1ccc(O)cc1)O2` (centres undefined), the pEC50 is under 3.70 and the pIC50 was 4.03.
The corresponding values for `Cc1cc(=O)c2ccc3c(ccc4c(=O)cc(C)[nH]c43)c2[nH]1` are under 3.70 and 4.94.
As to `C[C@]12CCC[C@H](Cl)C1(O)C[C@H](C(=O)O)CC2` (some centres undefined), the result was inactive.
For the compound `O=C(C/C(=N\NC(=O)C[n+]1ccccc1)C(=O)Nc1nc2ccc([N+](=O)[O-])cc2s1)CC(c1ccccc1)c1c(O)c2ccccc2oc1=O` (centres undefined), the pEC50 is under 5.56 and the negative-log IC50 (pIC50) was under 5.56.
As to `CCOC(=O)C(NCc1ccccc1)(NC(=O)c1ccccc1)C(F)(F)F` (centres undefined), the outcome was inactive.
Take `C1=CN2C(c3ccccc3)=NON(c3ncccn3)C2N=C1` (centres undefined): the pEC50 is under 4.33 and the negative logarithm of the IC50 (pIC50) was under 4.33.
Regarding `N#Cc1sc2c(c1OC(=O)c1ccccc1)c(=O)n(-c1ccccc1)c(=S)n2-c1ccccc1`, the pEC50 was under 3.70 and the pIC50 is 5.63.
The corresponding values for `S=c1sc(-c2ccc(Cl)cc2)nn1CSc1nc2ccccc2[nH]1` are under 3.70 and 4.50.
On to `COC(=O)C1(O)c2ccccc2N=C2C1CCN2C` (centres undefined), for which the pEC50 was under 4.56 and the pIC50 is under 4.56.
As for `N#Cc1[nH]c(=O)n(-c2ccccc2)c1N`, the pEC50 is under 3.70 and the pIC50 is under 3.70.
Regarding `Clc1ccc(-c2cn3c(nc4ccccc43)c(-c3ccccc3)n2)cc1`, the pEC50 was under 3.70 and the pIC50 is 4.14.
As for `Cc1ccc(C(=O)O)cc1S(=O)(=O)Nn1cnc2ccc(S(=O)(=O)Nc3ccccc3C(=O)O)cc2c1=O`, the pEC50 is under 3.70 and the pIC50 was under 3.70.
`CC(C)(C)OC(=O)N[C@@H]1C(=O)N2CCCOC12` (some centres undefined): the outcome was inactive.
Consider `Cc1cc(S(=O)(=O)NC(=NCC(=O)NN)NN)c(S)cc1Cl`, for which the pEC50 was under 3.70 and the pIC50 was 4.46.
The corresponding values for `O=[N+]([O-])c1cc([As](=O)(O)O)ccc1Cl` are under 3.70 and under 3.70.
In the case of `Cc1cc(C)nc(NS(=O)(=O)c2ccc(NC(=O)c3ccc(Cl)c4c(Nc5ccc(S(=O)(=O)N=C(N)N)cc5)c5ccccc5nc34)cc2)n1`, the pEC50 was under 4.45 and the pIC50 was 4.51.
For the compound `COC1OC(COC(=O)c2ccccc2)C(OC(=O)c2ccccc2)C1NC(C)=O` (centres undefined), the pEC50 is under 3.70 and the pIC50 was under 3.70.
Regarding `CCOC(=O)/C=C1/C(CCCOCc2ccccc2)C2CCCC23CC2(CCN13)OCCO2` (centres undefined), the outcome was inactive.
Regarding `CC1C2=C(CN3C[C@H](C)CCC13)C1CC3C(C[C@@H](O)C4C[C@@H](O)CC[C@]34C)C1CC2` (some centres undefined), the pEC50 is under 4.64 and the pIC50 was under 4.64.
On to `CCOC(=O)c1cn(CC)c2cc3c(cc2c1=O)CCS3(=O)=O`, for which the pEC50 is under 3.70 and the pIC50 was under 3.70.
On to `CN(C)/C=C\c1c([N+](=O)[O-])ncn1C`, for which the pEC50 was under 3.70 and the pIC50 was under 3.70.
For the compound `CC(C)=NOC(=O)OC[C@H]1O[C@@H](n2cnc3c(N)ncnc32)C(O)C1O` (some centres undefined), the pEC50 was under 3.70 and the pIC50 is under 3.70.
`NC(c1ccccc1)P(=O)(OCc1ccc([N+](=O)[O-])cc1)OCc1ccc([N+](=O)[O-])cc1` (centres undefined): the pEC50 is under 4.06 and the pIC50 is 4.27.
In the same order, the values of `Cc1cn(C2CC(O)C(CNC(=O)NO)O2)c(=O)[nH]c1=O` (centres undefined) are under 3.70 and under 3.70.
In the same order, the values of `CC12ON=C(c3ccccc3)N1C=CN1C(c3ccccc3)=NOC12` (centres undefined) are under 3.70 and under 3.70.
The corresponding values for `CCOC(=O)N/N=C(\CC)NO` are under 3.70 and under 3.70.
Regarding `Cc1cc(NC(=O)c2ccc(NC(=O)c3ccccc3)cc2)ccc1N=Nc1ccc(N=Nc2ccc3c(O)cc(S(=O)(=O)O)cc3c2)c2cc(S(=O)(=O)O)ccc12`, the pEC50 is 5.21 and the negative logarithm of the IC50 (pIC50) is 4.30.
The corresponding values for `O=c1[nH]c(NCc2cccnc2)nc2nc[nH]c12` are under 3.70 and under 3.70.
For `O=C(O)c1ccccc1Sc1ccccc1[N+](=O)[O-]`, the outcome was inactive.
For `c1ccc2c3c([nH]c2c1)C1(CCCCC1)c1c([nH]c2ccccc12)C31CCCCC1`, the pEC50 is under 5.16 and the pIC50 is under 5.16.
With `O=Nc1c(O)cc(Nc2cccnc2)c2ccccc12`, the pEC50 was 3.99 and the pIC50 is 3.74.
As for `CCOC(=O)C(=Cc1ccc(Br)cc1)C(=O)OCC`, the pEC50 is under 4.24 and the pIC50 was 4.93.
As for `COC1=NC(NC2OCC(O)C(O)C2O)=C(NC(C)=O)CN1C` (centres undefined), the pEC50 is under 3.70 and the pIC50 is under 3.70.
Turning to `CCOC(=O)NC(=O)c1cn(CCN2CCN(C(=O)CCCCCCCCCCNc3ncnc4c3ncn4C3OC(CO)C(O)C3O)CC2)c(=O)[nH]c1=O` (centres undefined), the result was inactive.
With `On1c(-c2ccccc2)nc2ccccc2c1=S`, the pEC50 was under 3.70 and the pIC50 was 5.84.
The corresponding values for `O=C(O)C1C2C=CC(C(/C=C/c3ccccc3)N2)C1C(=O)O` (centres undefined) are under 3.70 and under 3.70.
As for `COc1ccc(N2C(=O)C3c4[nH]c5cc(C)ccc5c4C4CCC(C(C)(C)C)CC4C3C2=O)cc1` (centres undefined), the pEC50 was under 3.70 and the negative logarithm of the IC50 (pIC50) was 3.98.
The corresponding values for `O=C1N/C(=C\[N+](=O)[O-])c2ccccc21` are under 3.30 and 3.58.
For the compound `CC1(C)OC(=O)N(c2ccccc2)C12C=Cc1cc([N+](=O)[O-])ccc1O2` (centres undefined), the pEC50 is under 3.82 and the pIC50 was 4.21.
In the case of `COc1ccc(OC)c(C[P+](c2ccccc2)(c2ccccc2)c2ccccc2)c1`, the pEC50 is under 3.70 and the pIC50 was 5.92.
In the same order, the values of `Cc1c(C)c2c(c3c1OC(C)(C)CC3)CCC(C)(C)O2` are under 3.87 and 4.13.
As to `O=C(OC[C@H]1OC(OC(=O)c2ccccc2)C(=O)C2(OC(=O)c3ccccc3)C3C=CC(C3)C12)c1ccccc1` (some centres undefined), the outcome was inactive.
In the case of `Nc1nc(Cl)c(N=Nc2ccc(Cl)cc2)c(NCC2(CO)CC(OCc3ccccc3)C2)n1` (centres undefined), the pEC50 was under 4.70 and the pIC50 was 4.84.
